Assay results from ChEMBL document CHEMBL1201862, “PubChem BioAssay data set” (2004).
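Growth conditions: 96-well plates. Treatment: test compound, 48 hours, 5 concentrations. Analysis: linear interpolation between bracketing concentrations; unreached endpoints set to highest concentration. GI50 marks 50% less growth.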 Calls of active or inactive are those of the source. Cut-off read from the data, not from the text of the source: active = GI50 up to about 1.1 µM and inactive = higher.

Assays:
Test in all cases: DTP human tumour cell line panel, 48 h
786-0 = system: 786-0
BT-549 = system: BT-549
HCT-116 = system: HCT-116
HOP-62 = system: HOP-62
HT-29 = system: HT-29
IGROV-1 = system: IGROV-1
KM12 = system: KM12
NCI-H226 = system: NCI-H226
NCI-H522 = system: NCI-H522
OVCAR-5 = system: OVCAR-5
OVCAR-8 = system: OVCAR-8
RPMI-8226 = system: RPMI-8226
SF-295 = system: SF-295
SK-MEL-2 = system: SK-MEL-2
SK-MEL-5 = system: SK-MEL-5
SK-OV-3 = system: SK-OV-3
SNB-19 = system: SNB-19
U-251 = system: U-251
DMS-273 = system: DMS-273

Measured: GI50

O=C(Nc1ccc2cc3ccccc3cc2c1)c1cc2c(cc1Cl)Sc1nccn1S2(=O)=O
inactive: 786-0 4.73 µM | BT-549 32.5 µM | HCT-116 3.85 µM | HOP-62 59.6 µM | HT-29 18.9 µM | IGROV-1 15.9 µM | KM12 33.7 µM | NCI-H226 82.8 µM | NCI-H522 33.7 µM | OVCAR-5 21.7 µM | OVCAR-8 26.4 µM | RPMI-8226 > 100 µM | SF-295 13.4 µM | SK-MEL-2 85.9 µM | SK-MEL-5 7.93 µM | SK-OV-3 > 100 µM | SNB-19 25.1 µM | U-251 5.48 µM

O=C(/C=C/c1ccccc1)CSc1nc2ccc(I)cc2c(=O)n1Cc1ccccc1
inactive: 786-0 14.5 µM | BT-549 > 77.4 µM | HCT-116 19.8 µM | HOP-62 14.3 µM | HT-29 26.3 µM | IGROV-1 7.26 µM | KM12 14.5 µM | NCI-H226 12.7 µM | NCI-H522 12.3 µM | OVCAR-5 > 100 µM | OVCAR-8 25.5 µM | RPMI-8226 13.6 µM | SF-295 14 µM | SK-MEL-2 28.4 µM | SK-MEL-5 12.7 µM | SK-OV-3 29.6 µM | SNB-19 42.6 µM | U-251 26.5 µM

O=C(/C=C/c1ccc(OCc2cccc(Cl)c2)cc1)NO
inactive: 786-0 10.7 µM | BT-549 24.8 µM | HCT-116 11.5 µM | HOP-62 18.2 µM | HT-29 13.6 µM | IGROV-1 11.9 µM | KM12 16.5 µM | NCI-H226 14 µM | NCI-H522 7.41 µM | OVCAR-5 13.9 µM | OVCAR-8 6.31 µM | RPMI-8226 7.48 µM | SF-295 17.9 µM | SK-MEL-2 18 µM | SK-MEL-5 16.4 µM | SK-OV-3 17.9 µM | SNB-19 18 µM | U-251 15 µM

COC1OC(CBr)C(OC(=O)c2ccccc2)C(O)C1Br (centres undefined)
inactive: 786-0 > 100 µM | DMS-273 > 100 µM | HCT-116 > 100 µM | HOP-62 > 100 µM | HT-29 > 100 µM | IGROV-1 > 10 µM | KM12 > 100 µM | NCI-H226 > 100 µM | NCI-H522 > 100 µM | OVCAR-5 > 100 µM | OVCAR-8 > 100 µM | RPMI-8226 > 100 µM | SF-295 > 100 µM | SK-MEL-5 > 100 µM | SNB-19 > 100 µM | U-251 > 100 µM

CN(C(=N)c1ccccc1)c1ccccc1
inactive: 786-0 > 100 µM | DMS-273 > 100 µM | HCT-116 > 100 µM | HT-29 > 100 µM | IGROV-1 > 100 µM | KM12 > 100 µM | NCI-H226 > 100 µM | OVCAR-8 > 100 µM | RPMI-8226 > 100 µM | SF-295 > 100 µM | SK-MEL-2 > 100 µM | SK-MEL-5 > 100 µM | SK-OV-3 > 100 µM | SNB-19 > 100 µM | U-251 > 100 µM

CCOC(=O)/C=C(\C(=O)OCC)n1ccc(N)nc1=O
inactive: 786-0 > 100 µM | BT-549 38.6 µM | HCT-116 > 100 µM | HOP-62 > 100 µM | HT-29 52.2 µM | IGROV-1 > 100 µM | KM12 > 100 µM | NCI-H226 > 100 µM | NCI-H522 18.2 µM | OVCAR-5 33 µM | OVCAR-8 > 100 µM | RPMI-8226 > 100 µM | SF-295 > 100 µM | SK-MEL-2 > 100 µM | SK-MEL-5 > 100 µM | SK-OV-3 > 100 µM | SNB-19 > 100 µM | U-251 72.3 µM

C=C(Br)C(C)(Br)CCC(Br)C(C)(C)Cl (centres undefined)
inactive: 786-0 17.8 µM | BT-549 23.8 µM | HCT-116 11.7 µM | HOP-62 23 µM | HT-29 17.9 µM | IGROV-1 13.6 µM | KM12 16.6 µM | NCI-H226 31 µM | NCI-H522 6.62 µM | OVCAR-5 18.8 µM | OVCAR-8 17.8 µM | RPMI-8226 15.4 µM | SF-295 16.9 µM | SK-MEL-2 25.7 µM | SK-MEL-5 17.2 µM | SK-OV-3 27.8 µM | SNB-19 18.8 µM | U-251 16.2 µM

C#C[C@]1(O)CC[C@H]2[C@@H]3CCC4=C/C(=N/NC(=O)c5cccc6c(=O)c7ccccc7[nH]c56)CCC4[C@H]3CC[C@@]21C (some centres undefined)
inactive: 786-0 35.6 µM | BT-549 19.2 µM | HCT-116 53 µM | HOP-62 > 100 µM | HT-29 30.3 µM | IGROV-1 82.2 µM | KM12 25.5 µM | NCI-H226 73.8 µM | NCI-H522 15.8 µM | OVCAR-5 > 100 µM | OVCAR-8 21.3 µM | RPMI-8226 28.8 µM | SF-295 43.4 µM | SK-MEL-2 33 µM | SK-MEL-5 24.4 µM | SK-OV-3 > 100 µM | SNB-19 86.3 µM | U-251 29.8 µM
